Laboratory results taken from US9791463B2, “Methods for the selective detection of alkyne-presenting molecules and related compositions and systems” (Lawrence Livermore National Security, LLC, priority 2013, dated 2017).

Assays:
[1] = Visual fluorescence analysis with a UV lamp (long wavelength, 365 nm); type: physicochemical; details: λ=365 nm; equimolar solutions of probe and adduct
From the text: Both vials contain equimolar amounts of the azido probe and EE2-probe adduct respectively.
Once an azido probe as herein described (e.g. 3) is synthesized (Example 1), it can be reacted with commercially available EE2. For example, reaction of azido probe 3 with EE2 in the presence of CuSO4.5H2O and sodium ascorbate in a 2:1 tert-butanol-water mixture at room temperature overnight yielded the triazole-containing EE2-probe adduct 4 in nearly quantitative yield (>95%) as an off-white solid after column chromatography. The use of another source of Cu(I) ion such as CuBr or CuI can be employed in this step, eliminating the need for sodium ascorbate. However, copper(I) halides can be avoided if a reduction in unwanted background fluorescence when using the spectrophotometer is desired. If a cost reduction is desired, instead of copper(I) halides readily available and inexpensive Cu(II) sulfate pentahydrate and sodium ascorbate can be purchased in multigram quantities and used in reactions with EE2. […] The calculated Stokes' shift based on this preliminary measurements is Δλ=48 nm.

[2] = Fluorescence measurement of azido probe and EE2-probe adduct (spectrometer); type: physicochemical; details: excited at λ=319 nm; initial measurements
From the text: A feature of the probes herein described is the means by which a readable fluorescent signal can be reliably detected once the azidonaphthalimidoyl probe (see Example 1, compound 3) reacts with EE2. Thus, fluorescent measurements can be conducted on azido probe 3 (Example 1) before and after its reaction with commercially available 17α-ethinylestradiol (EE2, 1) (FIG. 5). […] Thus, the fluorescence profile of the EE2-probe adduct 4 can be obtained at different concentrations in order to obtain the lowest limit of detection for this analytical approach (Panel 1 of FIG. 5). Once that lower limit has been determined, a second set of experiments can be undertaken to test the efficacy and fidelity of the Click reaction. […] After the overnight run, the samples can be extracted into an organic layer (CH2Cl2 or diethyl ether), evaporated, redissolved in the solvent of choice for the fluorescence measurements (e.g. H2O, or a combination of MeOH/H2O) and their fluorescent intensities measured. This second set of experiments is designed to test the real case scenario where the actual, unknown EE2 concentration in a given sample can be detected using the azido probe.
Once an azido probe as herein described (e.g. 3) is synthesized (Example 1), it can be reacted with commercially available EE2. […] The calculated Stokes' shift based on this preliminary measurements is Δλ=48 nm.

qualitative fluorescence under UV lamp [1]: does not | fluorescence of the probe [2]: marginal fluorescence
SMILES: [N-]=[N+]=Nc1ccc2c3c(cccc13)C(=O)N(CCOCCO)C2=O [Probe 3]
